US6395725B1, “Analgesic methods using synthetic catalysts for the dismutation of superoxide radicals” (priority 1997, dated 2002)

Assays:
tolerance to morphine = assay: Morphine tolerance in mice, hot plate test; format: in vivo
Experimental: Mice were treated twice a day with either saline (naive) or morphine (s.c., 10 mg/kg) for a period of 4 days to induce tolerance. For comparison, a dose of 10 mg, or less than 0.15 mg/kg every 4 to 10 hours, is a morphine dosage routinely prescribed for the 70 kg. human adult with severe pain. On day 5, all mice received a subcutaneous challenge dose of 3 mg./kg morphine and the level of analgesia was measured 30 minutes later. […] Tolerance to morphine was eliminated in mice that were treated with the superoxide dismutase catalyst SC-72325 administered intraperitoneally.

morphine tolerance = conditions: literature background; cited from earlier work
[1] = test system: temporomandibular joint dysfunction; conditions: intra-articular injections, patients with TMJ dysfunction; cited from earlier work

Which results are given for CN1CC[C@]23c4c5ccc(O)c4O[C@H]2[C@@H](O)C=C[C@H]3[C@H]1C5 [morphine]?
analgesic effect from morphine on day 5 (tolerance to morphine; mice treated with morphine s.c. 10 mg/kg twice a day for 4 days, challenge 3 mg/kg, 30 minutes, versus naive mice): decreased analgesic effect; analgesia (tolerance to morphine; naive or non-tolerant mice, s.c. challenge dose 3 mg/kg, hot plate test): 90%

With NC(=NCCC[C@H](N)C(=O)O)N[N+](=O)[O-] [NG-nitroarginine] as the molecule, how does the morphine tolerance (morphine tolerance) read?
The morphine tolerance was “prevent and reverse morphine tolerance”.

For “human Cu/Zn superoxide dismutase: naturally occurring enzyme used intra-articularly as a nonsteroidal anti-inflammatory”, which “Positive response in terms of mandibular movement and pain” value [1] is on record?
The value was 83 % of patients.

For C[C@]12N[C@H](Cc3ccccc31)c1ccccc12 [MK-801], which morphine tolerance (morphine tolerance) is on record?
The morphine tolerance was “prevent morphine tolerance”.
